Results on five compounds are retold here after ChEMBL document CHEMBL4392874, “Inhibitory Effects of Phenylpropanoid Derivatives from Oenanthe javanica on Antigen-Stimulated Degranulation in RBL-2H3 Cells” (J Nat Prod, 2019).

Data set [1] concerns RBL-2H3. The data set is described as follows: Cytotoxicity against rat RBL2H3 cells assessed as reduction in cell viability at 6.3 to 50 ug/ml measured after 3 hrs by CCK8 assay. The conditions noted are these: rbl-2h3, 3 h. Format: cell-based.
Data set [2] relates to RBL-2H3. The experiment in a line: Antiallergic activity in rat RBL2H3 cells assessed as inhibition of A23187/PMA-induced beta hexosaminidase release after 1 hr by para-nitrophenyl-N-acetyl-beta-d-glucosaminide substrate based assay. In kind it is functional, cell-based.
The test system of data set [3] is RBL-2H3. The data set is described as follows: Antiallergic activity in rat RBL2H3 cells assessed as inhibition of A23187-induced beta hexosaminidase release after 1 hr by para-nitrophenyl-N-acetyl-beta-d-glucosaminide substrate based assay. In kind it is functional, cell-based.
The subject of data set [4] is RBL-2H3. The experiment in a line: Antiallergic activity in […]-stimulated rat RBL2H3 cells assessed as inhibition of anti-DNP-IgE-mediated degranulation by measuring decrease in beta-hexosaminidase activity preincubated for 20 mins followed by DNP-BSA stimulation. Format: functional, cell-based.
For another data set, the system named is HeLa. The data set is described as follows: Cytotoxicity against human HeLa cells assessed as reduction in cell viability at 12.5 to 100 ug/ml measured after 12 hrs by crystal violet staining based assay.

Turning to `O=C(/C=C/c1ccc(O)c(O)c1)O[C@H]1[C@@H](C(=O)O)OC(C(=O)O)=C[C@H]1OC(=O)/C=C/c1ccc(O)c(O)c1`, the Activity entry in the data set on RBL-2H3 [1] and in the data set with HeLa was “Non-Toxic” each time. The inhibition result in the data set on RBL-2H3 [2], in the data set on RBL-2H3 [3] and with RBL-2H3 [4] was “Dose-dependent effect” in each case.
`O=C1O[C@H](c2ccc(O)cc2)[C@@H](C(=O)O)/C1=C\c1ccc(O)cc1`: the Activity result with RBL-2H3 [1] and in the data set with HeLa was “Non-Toxic” throughout. Besides, the inhibition result in the data set on RBL-2H3 [2], with RBL-2H3 [3] and with RBL-2H3 [4] was “Dose-dependent effect” each time.
`COc1cc(-c2oc3cc(O)cc(O)c3c(=O)c2O)ccc1O` [ISORHAMNETIN]: the Activity entry in the data set with HeLa is “Non-Toxic”.
Turning to `O=c1c(O)c(-c2ccc(O)c(O)c2)oc2cc(O)cc(O)c12` [QUERCETIN], in the data set with HeLa, the Activity entry is recorded as “Toxic”.
As to `O=C(O)C(=Cc1ccc(O)cc1)/C=C/c1ccc(O)cc1` (mixture of isomers), the Activity result with RBL-2H3 [1] and in the data set on HeLa was “Non-Toxic” each time. Moreover, the inhibition entry in the data set on RBL-2H3 [2], in the data set with RBL-2H3 [3] and in the data set with RBL-2H3 [4] was “Dose-dependent effect” each time.
